Patent US7811352B2, “Fertilizer compositions and methods of using” (priority 2005, dated 2010)

Legend:
[1] = tested on: Pennlinks creeping bentgrass maintained as a golf fairway; experiment: Turfgrass quality rating, fairway creeping bentgrass (Example 15); type: in vivo; conditions: scale of 1-9
Source text: In this Example, the effect of a fertilizer comprising lysine on cool season fairway turfgrass growth was examined. The effects of lysine (HCl) and LIQUID LYSINE on a common type of golf course fairway variety turfgrass (Pennlinks creeping bentgrass maintained as a golf fairway) were compared with those of urea, Milorganite and a blended fertilizer (a blend of methylene urea and urea in an approximately 1:1 ratio).
Fifteen fertilizer treatments comprising three concentrations of each fertilizer composition (Milorganite (N—P—K, 6-2-0), urea (N—P—K, 46-0-0), a blended fertilizer, LIQUID LYSINE (N—P—K, 10-2-1), and lysine (HCl) (N—P—K, 15-2-1)) were prepared and applied to 3 replications of a well established Pennlinks creeping bentgrass maintained as a golf fairway grass. The urea, lysine (HCl), and LIQUID LYSINE were dissolved/suspended in 1.5 gal water prior to application. […] The urea, LIQUID LYSINE and lysine (HCl) were applied as foliar liquids, while Milorganite and the blended fertilizer were applied as granular fertilizers. Plot size was 4 ft×8 ft laid out in a replicated complete block design. Plots were mowed at 0.5 inches before fertilizer application and mowed three times per week to 0.5 inch height. Grass clippings were not removed from the plots and no supplemental cultural maintenance was applied. Irrigation (0.15 inch) was applied following application and every other day thereafter. Plots were rated for turfgrass quality (scale of 1-9 where 9=dark green turf, 1=dead/brown turf, and 6=minimally acceptable turf and phytotoxic injury (scale of 0-9 where 9=significant foliar injury and 2=minimally objectional foliar injury) throughout the study period. Quality was measured prior to application (day 0) and day 37, day 70 and day 95 after application. Injury was measured on day 37, day 70 and day 95 after application. All data was subject to statistical analysis and significant means were determined. Average turfgrass quality ratings for the treatments are presented in Table 24.

[2] = tested on: total soil bacteria and fungi; experiment: Soil microbial population (plate count) after fertilizer application to Kentucky bluegrass turf (Example 8); conditions: 1.0 lb N/1000 ft^2; 24, 48 and 72 hours after application
Description: In this Example, the effect on various embodiments of the fertilizer composition on soil microbial population (bacterial and fungal) was examined. The Example compared the effect on total microbial populations 24, 48 and 72 hours after application of the fertilizer to a Kentucky bluegrass turf.
The following fertilizer compositions were used: urea, dry lysine (lysine (HCl), LIQUID LYSINE brand aqueous lysine solution (available from Archer-Daniels-Midland Company, Decatur, Ill.), a threonine cell mass, a lysine cell mass, and soy/lysine combination (a granular mixture of dry lysine and soy flour, soy flakes and soybean oil. Analysis of the threonine cell mass is presented in Table 5. The effect of the fertilizer compositions on microbial population were compared with a control plot to which no fertilizer composition was applied. The dry lysine was dissolved in water and applied by spraying on the turf plot. The fertilizer compositions were applied at a rate of 1.0 lb N/1000 ft^2 of Kentucky bluegrass turf Soil samples from the turf were analyzed for total soil bacteria and fungi by standard plate count and dilution series.

[3] = tested on: Floratam St. Augustine grass; experiment: Turfgrass quality and color ratings, St. Augustine grass (Example 9); type: in vivo; set-up: key: 1-10 scale: 10 = dark green turf, 1 = dead/brown, 6 = minimally acceptable; conditions: scale 1-10
Source text: In this Example, the effect of a fertilizer comprising lysine on warn season turfgrass growth was examined. The effects of lysine (HCl) and LIQUID LYSINE on a common type of lawn quality turfgrass (St. Augustine grass) were compared with those of urea and Milorganite. St. Augustine grass is a commonly utilized turfgrass throughout the warm, tropical zones for lawn turf and is a commercially significant species.
Twelve fertilizer treatments comprising three concentrations of each fertilizer composition (Milorganite (N—P—K, 6-2-0), urea N—P—K, 46-0-0), LIQUID LYSINE (N—P—K, 10-2-1), and lysine (HCl) (N—P—K, 15-2-1)) were prepared and applied to 4 replications of Floratam St. Augustine grass. The lysine (HCl) was dissolved in water prior to application. Each fertilizer treatment was applied in concentrations of 0.5 lb N/1000 ft^2/month, 1.0 lb N/1000 ft^2/month and 3.0 lb N/1000 ft^2/month. The urea, LIQUID LYSINE and lysine (HCl) were applied as foliar liquids, while Milorganite was applied as a granular fertilizer. Plot size was 1 m×2 m set up as a randomized complete block. Plots were mowed at 3.0 inches before fertilizer application. Irrigation (0.15 inch) was applied following application. Plots were rated for turfgrass quality and color (scale of 1-10 where 10=dark green turf, 1=dead/brown turf; and 6=minimally acceptable turf) and phytotoxicity (scale of 0-5, where 5=worst, and 2=minimally objectionable) throughout the study period. Quality, color, and phytotoxicity were measured on 2 days before application (day −2) and day 2, day 5, day 15 and day 21 after application. All data was subject to statistical analysis and significant means were determined. Average turfgrass quality ratings for the treatments are presented in Table 6 and the quality results for application rates of 1.0 lb N/1000 ft^2/month are graphically presented in FIG. 2.

[4] = Weekly Rate 0.5 lbs N/1000 ft^2, Day 0
[5] = Weekly Rate 0.5 lbs N/1000 ft^2, Day 37
[6] = Weekly Rate 0.5 lbs N/1000 ft^2, Day 70
[7] = Weekly Rate 0.5 lbs N/1000 ft^2, Day 95
[8] = Weekly Rate 1.0 lbs N/1000 ft^2, Day 0
[9] = Weekly Rate 1.0 lbs N/1000 ft^2, Day 37
[10] = Weekly Rate 1.0 lbs N/1000 ft^2, Day 70
[11] = Weekly Rate 1.0 lbs N/1000 ft^2, Day 95
[12] = Weekly Rate 3.0 lbs N/1000 ft^2, Day 0
[13] = Weekly Rate 3.0 lbs N/1000 ft^2, Day 37
[14] = Weekly Rate 3.0 lbs N/1000 ft^2, Day 70
[15] = Weekly Rate 3.0 lbs N/1000 ft^2, Day 95
[16] = Monthly Rate 0.5 lbs N/1000 ft^2, Day 2
[17] = Monthly Rate 0.5 lbs N/1000 ft^2, Day 5
[18] = Monthly Rate 0.5 lbs N/1000 ft^2, Day 15
[19] = Monthly Rate 0.5 lbs N/1000 ft^2, Day 21
[20] = Monthly Rate 0.5 lbs N/1000 ft^2, Day −2 (before application)
[21] = Monthly Rate 1.0 lbs N/1000 ft^2, Day 2
[22] = Monthly Rate 1.0 lbs N/1000 ft^2, Day 5
[23] = Monthly Rate 1.0 lbs N/1000 ft^2, Day 15
[24] = Monthly Rate 1.0 lbs N/1000 ft^2, Day 21
[25] = Monthly Rate 1.0 lbs N/1000 ft^2, Day −2 (before application)
[26] = Monthly Rate 3.0 lbs N/1000 ft^2, Day 2
[27] = Monthly Rate 3.0 lbs N/1000 ft^2, Day 5
[28] = Monthly Rate 3.0 lbs N/1000 ft^2, Day 15
[29] = Monthly Rate 3.0 lbs N/1000 ft^2, Day 21
[30] = Monthly Rate 3.0 lbs N/1000 ft^2, Day −2 (before application)

Cl.NCCCC[C@H](N)C(=O)O [Lys (HCl) 15% N, L-lysine monohydrochloride]
Quality Rating - Fairway Bentgrass [1, 4]: 6.3a | Quality Rating - Fairway Bentgrass [1, 5]: 6.0ab | Quality Rating - Fairway Bentgrass [1, 6]: 6.0 | Quality Rating - Fairway Bentgrass [1, 7]: 7.0a | Quality Rating - Fairway Bentgrass [1, 8]: 7.0a | Quality Rating - Fairway Bentgrass [1, 9]: 7.0a | Quality Rating - Fairway Bentgrass [1, 10]: 5.7 | Quality Rating - Fairway Bentgrass [1, 11]: 7.0a | Quality Rating - Fairway Bentgrass [1, 12]: 7.0a | Quality Rating - Fairway Bentgrass [1, 13]: 6.7ab | Quality Rating - Fairway Bentgrass [1, 14]: 5.7 | Quality Rating - Fairway Bentgrass [1, 15]: 7.0a | soil microbial populations compared with controls [2]: did not significantly differ | Color Ratings - St. Augustine Grass [3, 16]: 6.5 | Quality Ratings - St. Augustine Grass [3, 16]: 6.5 | Color Ratings - St. Augustine Grass [3, 17]: 7.3cd | Quality Ratings - St. Augustine Grass [3, 17]: 7.1bcd | Color Ratings - St. Augustine Grass [3, 18]: 7.0ef | Quality Ratings - St. Augustine Grass [3, 18]: 7.3ef | Color Ratings - St. Augustine Grass [3, 19]: 7.4c | Quality Ratings - St. Augustine Grass [3, 19]: 7.3cd | Color Ratings - St. Augustine Grass [3, 20]: 6.6 | Quality Ratings - St. Augustine Grass [3, 20]: 6.5 | Color Ratings - St. Augustine Grass [3, 21]: 7.0 | Quality Ratings - St. Augustine Grass [3, 21]: 6.6 | Color Ratings - St. Augustine Grass [3, 22]: 7.6bc | Quality Ratings - St. Augustine Grass [3, 22]: 7.3abc | Color Ratings - St. Augustine Grass [3, 23]: 7.6cd | Quality Ratings - St. Augustine Grass [3, 23]: 7.9cde | Color Ratings - St. Augustine Grass [3, 24]: 8.0abc | Quality Ratings - St. Augustine Grass [3, 24]: 7.9ab | Color Ratings - St. Augustine Grass [3, 25]: 6.6 | Quality Ratings - St. Augustine Grass [3, 25]: 6.4 | Color Ratings - St. Augustine Grass [3, 26]: 6.6 | Quality Ratings - St. Augustine Grass [3, 26]: 6.9 | Color Ratings - St. Augustine Grass [3, 27]: 8.0ab | Quality Ratings - St. Augustine Grass [3, 27]: 7.5ab | Color Ratings - St. Augustine Grass [3, 28]: 8.6a | Quality Ratings - St. Augustine Grass [3, 28]: 9.3a | Color Ratings - St. Augustine Grass [3, 29]: 8.0abc | Quality Ratings - St. Augustine Grass [3, 29]: 7.9ab | Color Ratings - St. Augustine Grass [3, 30]: 6.6 | Quality Ratings - St. Augustine Grass [3, 30]: 6.3

NC(N)=O [Urea, urea, reference compound]
Quality Rating - Fairway Bentgrass [1, 4]: 6.7a | Quality Rating - Fairway Bentgrass [1, 5]: 6.7ab | Quality Rating - Fairway Bentgrass [1, 6]: 6.0 | Quality Rating - Fairway Bentgrass [1, 7]: 7.0a | Quality Rating - Fairway Bentgrass [1, 8]: 7.0a | Quality Rating - Fairway Bentgrass [1, 9]: 7.0a | Quality Rating - Fairway Bentgrass [1, 10]: 6.7 | Quality Rating - Fairway Bentgrass [1, 11]: 7.0a | Quality Rating - Fairway Bentgrass [1, 12]: 6.3a | Quality Rating - Fairway Bentgrass [1, 13]: 7.0a | Quality Rating - Fairway Bentgrass [1, 14]: 6.0 | Quality Rating - Fairway Bentgrass [1, 15]: 7.0a | soil microbial populations compared with controls [2]: did not significantly differ | Color Ratings - St. Augustine Grass [3, 16]: 6.9 | Quality Ratings - St. Augustine Grass [3, 16]: 6.8 | Color Ratings - St. Augustine Grass [3, 17]: 7.4cd | Quality Ratings - St. Augustine Grass [3, 17]: 7.1bcd | Color Ratings - St. Augustine Grass [3, 18]: 7.8bc | Quality Ratings - St. Augustine Grass [3, 18]: 7.6def | Color Ratings - St. Augustine Grass [3, 19]: 7.6bc | Quality Ratings - St. Augustine Grass [3, 19]: 7.6bc | Color Ratings - St. Augustine Grass [3, 20]: 6.4 | Quality Ratings - St. Augustine Grass [3, 20]: 6.3 | Color Ratings - St. Augustine Grass [3, 21]: 6.9 | Quality Ratings - St. Augustine Grass [3, 21]: 6.8 | Color Ratings - St. Augustine Grass [3, 22]: 7.6bc | Quality Ratings - St. Augustine Grass [3, 22]: 7.5ab | Color Ratings - St. Augustine Grass [3, 23]: 7.5cde | Quality Ratings - St. Augustine Grass [3, 23]: 7.9cde | Color Ratings - St. Augustine Grass [3, 24]: 7.9abc | Quality Ratings - St. Augustine Grass [3, 24]: 7.6bc | Color Ratings - St. Augustine Grass [3, 25]: 6.4 | Quality Ratings - St. Augustine Grass [3, 25]: 6.3 | Color Ratings - St. Augustine Grass [3, 26]: 6.8 | Quality Ratings - St. Augustine Grass [3, 26]: 6.9 | Color Ratings - St. Augustine Grass [3, 27]: 8.3a | Quality Ratings - St. Augustine Grass [3, 27]: 7.3abc | Color Ratings - St. Augustine Grass [3, 28]: 8.8a | Quality Ratings - St. Augustine Grass [3, 28]: 9.1ab | Color Ratings - St. Augustine Grass [3, 29]: 8.5a | Quality Ratings - St. Augustine Grass [3, 29]: 8.3a | Color Ratings - St. Augustine Grass [3, 30]: 6.1 | Quality Ratings - St. Augustine Grass [3, 30]: 6.1
